Results published in patent US9079913B2, “Spiro-oxindole MDM2 antagonists” (The Regents of the University of Michigan, priority 2009, dated 2015).
Where two headings read alike, the source gives them in different places.

Columns and labels:
[1] = system: Isogenic HCT-116 colon cancer cell lines; assay: cells; format: cell-based; conditions: cell growth;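 further: cells grown in 96-well plates in McCoy's 5A medium with 10% FBS, exposed to compound for 4 days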
Description: Cells were seeded in 96-well flat bottom cell culture plates at a density of 2−3×10^3 cells/well with compounds and incubated for 4 days.

[2] = biological target: recombinant human His-tagged MDM2 protein (residues 1-118) (Homo sapiens (Human), UniProt Q00987); assay: Fluorescence-polarization MDM2 binding assay; conditions: for IC50: Table 19A, FP binding assay, read-out: MDM2 IC50;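 on all read-outs here: fluorescence polarization read after three hours of incubation in potassium phosphate buffer containing bovine gamma globulin and Triton X-100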
Chain of recombinant human His-tagged MDM2 protein (residues 1-118) (Q00987 1-118): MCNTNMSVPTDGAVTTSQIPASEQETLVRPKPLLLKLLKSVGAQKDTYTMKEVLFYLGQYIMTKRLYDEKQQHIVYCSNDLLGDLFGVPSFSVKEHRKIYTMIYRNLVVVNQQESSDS

[3] = Pharmacokinetic studies in rats; format: in vivo, rat
Description: Pharmacokinetic studies on MDM2 inhibitors were carried out in rat. For comparison, the MDM2 inhibitor, AT-219, was also studied.

[4] = In vitro microsomal stability, rat; format: in vitro ADME; conditions: for Microsomal stability, % remaining: Rat Microsome, same batch; for microsomal stability (in words) / % of compound remaining when incubated in rat liver microsomes with NADPH: rat liver microsomes
[5] = In vitro microsomal stability, human; format: in vitro ADME; conditions: for Microsomal stability, % remaining: Human Microsome, same batch; for microsomal stability (in words) / % of compound remaining when incubated in human liver microsomes with NADPH: human liver microsomes
[6] = system: cancer cell lines with wild-type p53 / mutated or deleted p53 (ATCC); assay: Cell growth assay (WST-8), other cancer cell lines; format: cell-based
[7] = Homo sapiens, HCT-116, read-out: HCT-116 (p53 wild-type) IC50, Table 19A, HCT-116 p53 wild-type
[8] = rat, plasma, male rats, oral dose 15 mg/kg
[9] = Homo sapiens, LNCaP, Table 19A, LNCAP cells, p53 wild-type, cell growth, read-out: LNCAP (p53 wild-type) IC50

SMILES: CC(C)(C)C[C@H]1N[C@@H](C(=O)NCCC(C)(O)CO)[C@H](c2cccc(Cl)c2)[C@@]12C(=O)Nc1cc(Cl)c(F)cc12 (some centres unmarked) [MI-758]
- IC50 ([1]; Homo sapiens, HCT-116, read-out: HCT-116 (p53-/-) IC50, Table 19A, HCT-116 p53-/-): 19100 ± 3600 nM
- IC50 [1, 7]: 600 nM
- IC50 [2]: < 1000 nM
- oral bioavailability / oral pharmacokinetics in rats (in words) ([3]; oral dosing, rats): good oral bioavailability and pharmacokinetic parameters
- bioavailability [3, 8]: 38%
- half-life [3, 8]: 1.9 ± 0.1 h
- AUC(0-t) ([3]; rat, plasma, male rats, oral dose 15 mg/kg, read-out: AUC(0-t)): 4280 ± 2690 µg·h/mL
- Cmax ([3]; rat, plasma, male rats, oral dose 15 mg/kg, read-out: Cmax): 1490 ± 1120 ng/mL
- Microsomal stability, % remaining ([4]; 0 min): 100.00%
- Microsomal stability, % remaining ([4]; 5 min): 96.52%
- Microsomal stability, % remaining ([4]; 10 min): 92.93%
- Microsomal stability, % remaining ([4]; 15 min): 82.50%
- Microsomal stability, % remaining ([4]; 30 min): 73.32%
- Microsomal stability, % remaining ([4]; 45 min): 69.33%
- Microsomal stability, % remaining ([4]; 60 min): 66.93%
- microsomal stability (in words) [4]: improved stability over MI-219
- % of compound remaining when incubated in rat liver microsomes with NADPH ([4]; 0 min): 100.00%
- % of compound remaining when incubated in rat liver microsomes with NADPH ([4]; 5 min): 96.52%
- % of compound remaining when incubated in rat liver microsomes with NADPH ([4]; 10 min): 92.93%
- % of compound remaining when incubated in rat liver microsomes with NADPH ([4]; 15 min): 82.50%
- % of compound remaining when incubated in rat liver microsomes with NADPH ([4]; 30 min): 73.32%
- % of compound remaining when incubated in rat liver microsomes with NADPH ([4]; 45 min): 69.33%
- % of compound remaining when incubated in rat liver microsomes with NADPH ([4]; 60 min): 66.93%
- half-life ([4]; rat, liver microsomes, rat liver microsomes with NADPH): 1.33 h
- Microsomal stability, % remaining ([5]; 0 min): 100.00%
- Microsomal stability, % remaining ([5]; 5 min): 95.88%
- Microsomal stability, % remaining ([5]; 10 min): 89.21%
- Microsomal stability, % remaining ([5]; 15 min): 81.61%
- Microsomal stability, % remaining ([5]; 30 min): 65.20%
- Microsomal stability, % remaining ([5]; 45 min): 54.52%
- Microsomal stability, % remaining ([5]; 60 min): 51.45%
- microsomal stability (in words) [5]: improved stability over MI-219
- % of compound remaining when incubated in human liver microsomes with NADPH ([5]; 0 min): 100.00%
- % of compound remaining when incubated in human liver microsomes with NADPH ([5]; 5 min): 95.88%
- % of compound remaining when incubated in human liver microsomes with NADPH ([5]; 10 min): 89.21%
- % of compound remaining when incubated in human liver microsomes with NADPH ([5]; 15 min): 81.61%
- % of compound remaining when incubated in human liver microsomes with NADPH ([5]; 30 min): 65.20%
- % of compound remaining when incubated in human liver microsomes with NADPH ([5]; 45 min): 54.52%
- % of compound remaining when incubated in human liver microsomes with NADPH ([5]; 60 min): 51.45%
- half-life ([5]; human, liver microsomes, human liver microsomes with NADPH): 0.825 h
- IC50 [6, 9]: 600 nM
- IC50 ([6]; Homo sapiens, PC-3, Table 19A, PC-3 cells, deleted p53, cell growth, read-out: PC-3 (deleted p53) IC50): 18700 ± 7100 nM

SMILES: CC(C)(C)C[C@H]1N[C@@H](C(=O)NC2CCC(NS(C)(=O)=O)CC2)[C@H](c2cccc(Cl)c2F)[C@@]12C(=O)Nc1cc(Cl)ccc12 (some centres unmarked) [MI-771]
- IC50 [1, 7]: 1000 ± 300 nM
- IC50 ([1]; read-out: HCT-116 (p53-/-) IC50, Table 19A, HCT-116 p53-/-): 12000 ± 1100 nM
- IC50 [2]: < 1000 nM
- binding to MDM2 (in words) ([2]; human MDM2 protein): high affinities
- CLz ([3]; rat, IV, 5 mg/kg, plasma, parent compound): 36.7 mL/min/kg
- Vd ([3]; rat, plasma, iv, 5 mg/kg, rat, IV, 5 mg/kg, plasma, parent compound, read-out: Vz): 7.1 L/kg
- pharmacokinetic profile (in words) ([3]; rats, intravenous and oral routes of dosing): very poor pharmacokinetic profile
- microsomal stability (in words) [4]: very poor microsomal stability
- t1/2 ([4]; rat liver microsomes with NADPH): 2.69 min
- % of compound remaining when incubated in rat liver microsomes with NADPH ([4]; 0 min): 100.00%
- % of compound remaining when incubated in rat liver microsomes with NADPH ([4]; 5 min): 20.48%
- % of compound remaining when incubated in rat liver microsomes with NADPH ([4]; 10 min): 7.59%
- % of compound remaining when incubated in rat liver microsomes with NADPH ([4]; 15 min): 3.57%
- % of compound remaining when incubated in rat liver microsomes with NADPH ([4]; 30 min): 1.22%
- % of compound remaining when incubated in rat liver microsomes with NADPH ([4]; 45 min): 0.66%
- % of compound remaining when incubated in rat liver microsomes with NADPH ([4]; 60 min): 0.46%
- microsomal stability (in words) [5]: very poor microsomal stability
- t1/2 ([5]; human liver microsomes with NADPH): 3.12 min
- % of compound remaining when incubated in human liver microsomes with NADPH ([5]; 0 min): 100.00%
- % of compound remaining when incubated in human liver microsomes with NADPH ([5]; 5 min): 27.98%
- % of compound remaining when incubated in human liver microsomes with NADPH ([5]; 10 min): 10.82%
- % of compound remaining when incubated in human liver microsomes with NADPH ([5]; 15 min): 4.30%
- % of compound remaining when incubated in human liver microsomes with NADPH ([5]; 30 min): 0.82%
- % of compound remaining when incubated in human liver microsomes with NADPH ([5]; 45 min): 0.00%
- % of compound remaining when incubated in human liver microsomes with NADPH ([5]; 60 min): 0.00%
- IC50 [6, 9]: 1100 ± 100 nM
- IC50 ([6]; Homo sapiens, SJSA-1, Table 19A, SJSA-1 cells, p53 wild-type, cell growth, read-out: SJSA-1 (p53 wild-type) IC50): 1200 ± 300 nM
- IC50 ([6]; Table 19A, PC-3 cells, deleted p53, cell growth, read-out: PC-3 (deleted p53) IC50): 13700 ± 4400 nM
- cell growth inhibition (in words) ([6]; cancer cell lines with wild-type p53): effectively inhibit cell growth
